Values after ≈ are worked out from the molar mass of the structure shown. One block for each compound: values may come before it.
Assays:
Assay in all cases: ≥ marks a high value that may be exact or a test limit, other limits are often not marked, values filed in µg/mL are converted to µM
[1] = tested on: Escherichia coli CCARM 1229
[2] = tested on: Salmonella typhimurium CCARM 8009
[3] = tested on: Pseudomonas aeruginosa CCARM 2095
[4] = tested on: Pseudomonas aeruginosa KCTC 1637
[5] = tested on: Enterococcus faecalis KCTC 2011
[6] = tested on: Bacillus subtilis KCTC 3068
[7] = tested on: Salmonella typhimurium KCTC 1926
[8] = tested on: Staphylococcus aureus KCTC 1621
[9] = tested on: Acinetobacter baumannii CCARM 12035
[10] = tested on: Escherichia coli KCTC 1682
[11] = tested on: Aeromonas salmonicida 99-1
[12] = tested on: Escherichia coli CGSC 4908
[13] = tested on: Staphylococcus aureus C623
[14] = tested on: Pseudomonas aeruginosa Z61
[15] = tested on: Escherichia coli DC2
[16] = tested on: Salmonella enterica subsp. enterica serovar Typhimurium ATCC 14028s
[17] = tested on: Aeromonas salmonicida 97-4
[18] = tested on: Escherichia coli UB1005
[19] = tested on: Candida albicans C627
[20] = tested on: Pseudomonas aeruginosa K799
[21] = tested on: Staphylococcus epidermidis C621
[22] = tested on: Salmonella enterica serovar typhimurium MS7953s
[23] = tested on: Pseudomonas aeruginosa ATCC 27853
[24] = tested on: Pseudomonas aeruginosa 2
[25] = tested on: Pseudomonas aeruginosa PAO1
[26] = tested on: Pseudomonas aeruginosa 1
[27] = tested on: Pseudomonas aeruginosa ATCC 15692
[28] = tested on: Corynebacterium jeikeium ATCC BAA-949
[29] = tested on: Candida albicans
[30] = tested on: Pseudomonas aeruginosa
[31] = tested on: Staphylococcus epidermidis ATCC 12228
[32] = tested on: Lacticaseibacillus rhamnosus 1.0911
[33] = tested on: Staphylococcus aureus ATCC 29213
[34] = tested on: Salmonella enterica subsp. enterica serovar Choleraesuis CVCC 503
[35] = tested on: Staphylococcus aureus ATCC 43300
[36] = tested on: Salmonella enterica subsp. enterica serovar Pullorum C79-13
[37] = tested on: Lacticaseibacillus rhamnosus 8014
[38] = tested on: Escherichia coli K88
[39] = tested on: Streptococcus agalactiae BNCC 185941
[40] = tested on: Lacticaseibacillus rhamnosus 1.9021
[41] = tested on: Salmonella enterica subsp. enterica serovar Typhimurium ATCC 14028
[42] = tested on: Escherichia coli O157:H7 CICC 21530
[43] = tested on: Lacticaseibacillus rhamnosus 1.0936
[44] = tested on: Pseudomonas aeruginosa H1001

- MIC [1]: 2 µM (≈ 5.08 µg/mL)
- MIC [2]: 2 µM (≈ 5.08 µg/mL)
- MIC [3]: 4 µM (≈ 10.2 µg/mL)
- MIC [4]: 4 µM (≈ 10.2 µg/mL)
- MIC [5]: ≥ 128 µM
- MIC [6]: ≥ 32 µM
- MIC [7]: 4 µM (≈ 10.2 µg/mL)
- MIC [8]: ≥ 32 µM
- MIC [9]: 8 µM (≈ 20.3 µg/mL)
- MIC [10]: 2 µM (≈ 5.08 µg/mL)
Compound: CC[C@H](C)[C@H](NC(=O)CNC(=O)[C@H](CC(=O)O)NC(=O)[C@H](CCCN=C(N)N)NC(=O)[C@@H](NC(=O)[C@H](CC(N)=O)NC(=O)[C@H](CCCN=C(N)N)NC(=O)CNC(=O)[C@@H](NC(=O)[C@H](CCCCN)NC(=O)[C@H](CCC(=O)O)NC(=O)[C@@H](NC(=O)[C@H](CCCCN)NC(=O)[C@H](CCCCN)NC(=O)[C@H](Cc1ccccc1)NC(=O)[C@@H](NC(=O)[C@H](CCCCN)NC(=O)[C@H](C)NC(=O)[C@@H](N)CCCN=C(N)N)[C@@H](C)CC)[C@@H](C)CC)C(C)C)C(C)C)C(=O)N[C@H](C(=O)N[C@@H](CCCCN)C(=O)N[C@@H](C)C(N)=O)[C@@H](C)CC [RAKIFKKIEKVGRNVRDGIIKA]

- MIC [11]: 1.4 µM (≈ 4 µg/mL)
- MIC [12]: 1.4 µM (≈ 4 µg/mL)
- MIC [13]: 22.4 µM (≈ 64 µg/mL)
- MIC [14]: 0.701 µM (≈ 2 µg/mL)
- MIC [15]: 1.4 µM (≈ 4 µg/mL)
- MIC [16]: 2.8 µM (≈ 8 µg/mL)
- MIC [17]: 0.701 µM (≈ 2 µg/mL)
- MIC [18]: 1.4 µM (≈ 4 µg/mL)
- MIC [19]: 5.61 µM (≈ 16 µg/mL)
- MIC [20]: 1.4 µM (≈ 4 µg/mL)
- MIC [21]: 22.4 µM (≈ 64 µg/mL)
- MIC [22]: 0.701 µM (≈ 2 µg/mL)
Compound: CC(C)C[C@H](NC(=O)[C@H](Cc1ccc(O)cc1)NC(=O)[C@H](C)NC(=O)[C@@H](NC(=O)[C@H](CC(C)C)NC(=O)[C@H](C)NC(=O)[C@H](C)NC(=O)[C@H](CCCCN)NC(=O)CNC(=O)[C@@H](NC(=O)[C@H](Cc1cnc[nH]1)NC(=O)[C@H](CCCCN)NC(=O)CNC(=O)[C@@H](NC(=O)[C@H](Cc1cnc[nH]1)NC(=O)[C@@H](NC(=O)[C@H](C)NC(=O)[C@H](CCCCN)NC(=O)[C@H](CCCCN)NC(=O)[C@H](Cc1ccccc1)NC(=O)[C@H](Cc1c[nH]c2ccccc12)NC(=O)[C@H](CCCCN)NC(=O)CNC(=O)[C@H](Cc1c[nH]c2ccccc12)NC(=O)[C@@H](N)CCCN=C(N)N)[C@@H](C)O)C(C)C)C(C)C)[C@@H](C)O)C(N)=O [RWGKWFKKATHVGKHVGKAALTAYL]

- MIC [23]: 8 µM (≈ 15.1 µg/mL)
- MIC [24]: 16 µM (≈ 30.2 µg/mL)
- MIC [25]: 8 µM (≈ 15.1 µg/mL)
- MIC [26]: 8 µM (≈ 15.1 µg/mL)
- MIC [27]: 8 µM (≈ 15.1 µg/mL)
- MIC [28]: 4 µM (≈ 7.55 µg/mL)
- MIC [29]: 2.83 µM (≈ 5.34 µg/mL)
- MIC [30]: 8 µM (≈ 15.1 µg/mL)
Compound: CC[C@H](C)[C@H](NC(=O)CN)C(=O)N[C@@H](Cc1ccccc1)C(=O)N[C@@H](CO)C(=O)N[C@@H](CCCCN)C(=O)N[C@@H](CC(C)C)C(=O)N[C@@H](C)C(=O)NCC(=O)N[C@@H](CCCCN)C(=O)N[C@@H](CCCCN)C(=O)N[C@@H](CC(C)C)C(=O)N[C@@H](CCCCN)C(=O)N[C@@H](CC(N)=O)C(=O)N[C@@H](CC(C)C)C(=O)N[C@@H](CC(C)C)C(=O)N[C@H](C(=O)N[C@@H](CO)C(=O)NCC(N)=O)[C@@H](C)CC [GIFSKLAGKKLKNLLISG]

- MIC [31]: > 128 µM
- MIC [23]: 16 µM (≈ 22.3 µg/mL)
- MIC [32]: ≥ 128 µM
- MIC [33]: > 128 µM
- MIC [35]: > 128 µM
- MIC [25]: 32 µM (≈ 44.7 µg/mL)
- MIC [36]: 16 µM (≈ 22.3 µg/mL)
- MIC [37]: ≥ 128 µM
- MIC [38]: 4 µM (≈ 5.59 µg/mL)
- MIC [39]: ≥ 128 µM
- MIC [40]: ≥ 128 µM
- MIC [41]: 32 µM (≈ 44.7 µg/mL)
- MIC [42]: 8 µM (≈ 11.2 µg/mL)
- MIC [43]: ≥ 128 µM
Compound: CC(C)C[C@H](NC(=O)CNC(=O)[C@H](CC(C)C)NC(=O)[C@H](Cc1c[nH]c2ccccc12)NC(=O)[C@H](CC(C)C)NC(=O)CNC(=O)[C@H](CC(C)C)NC(=O)[C@H](CCCCN)NC(=O)[C@H](CCCCN)NC(=O)CN)C(=O)N[C@@H](CCCCN)C(=O)N[C@@H](CCCCN)C(=O)NCC(N)=O [GKKLGLWLGLKKG]
- MIC [34]: ≥ 32 µM

- MIC [44]: 0.12 µM (≈ 0.3 µg/mL)
Compound: CC[C@H](C)[C@H](NC(=O)[C@H](CCCN=C(N)N)NC(=O)[C@H](CCCN=C(N)N)NC(=O)[C@@H]1CCCN1C(=O)[C@@H]1CCCN1C(=O)[C@H](CCCN=C(N)N)NC(=O)[C@@H]1CCCN1C(=O)[C@H](CCCN=C(N)N)NC(=O)[C@@H]1CCCN1C(=O)[C@H](CC(C)C)NC(=O)[C@H](Cc1ccc(O)cc1)NC(=O)[C@@H]1CCCN1C(=O)[C@@H]1CCCN1C(=O)[C@H](CCCCN)NC(=O)[C@H](CC(=O)O)NC(=O)[C@@H](N)C(C)C)C(=O)N[C@@H](Cc1ccc(O)cc1)C(=O)N[C@@H](Cc1ccc(O)cc1)C(=O)N[C@@H](CCCN=C(N)N)C(=O)NCC(=O)O [VDKPPYLPRPRPPRRIYYRG]

- MIC [31]: > 128 µM
- MIC [23]: 32 µM (≈ 41 µg/mL)
- MIC [32]: ≥ 128 µM
- MIC [33]: > 128 µM
- MIC [35]: > 128 µM
- MIC [25]: 64 µM (≈ 82.1 µg/mL)
- MIC [36]: ≥ 32 µM
- MIC [37]: ≥ 128 µM
- MIC [38]: 16 µM (≈ 20.5 µg/mL)
- MIC [39]: ≥ 128 µM
- MIC [40]: ≥ 128 µM
- MIC [41]: 32 µM (≈ 41 µg/mL)
- MIC [42]: ≥ 64 µM
- MIC [43]: ≥ 128 µM
Compound: CC(C)C[C@H](NC(=O)CNC(=O)[C@H](CCCCN)NC(=O)[C@H](CC(C)C)NC(=O)[C@H](CC(C)C)NC(=O)[C@H](CCCCN)NC(=O)[C@@H](N)CCCCN)C(=O)N[C@@H](CC(C)C)C(=O)N[C@@H](CCCCN)C(=O)NCC(=O)N[C@@H](Cc1c[nH]c2ccccc12)C(N)=O [KKLLKGLLKGW]
- MIC [34]: ≥ 64 µM

- MIC [44]: 21.5 µM (≈ 25 µg/mL)
Compound: CC[C@H](C)[C@H](NC(=O)[C@H](C)NC(=O)[C@H](CC(N)=O)NC(=O)[C@@H](N)CCSC)C(=O)N[C@@H](CCCCN)C(=O)N[C@@H](CC(C)C)C(=O)N[C@@H](CC(C)C)C(=O)N[C@@H](CS)C(=O)N[C@@H](CCCN=C(N)N)C(=O)N[C@H](C(=O)O)C(C)C [MNAIKLLCRV]

Source: DBAASP
